Measurements as given in US20230012368A1 (Hoffmann-La Roche Inc., priority 2018, published 2023).
Structures can show the parent of a compound that is named as a salt.

tested on: Acinetobacter baumannii ATCC 17978; assay: Antimicrobial susceptibility testing: 90% growth inhibitory concentration (IC90) determination; assay type: cell-based; conditions: 90% growth inhibitory concentration; Acinetobacter baumannii ATCC17978; Iso-Sensitest broth, OD 600 nm over 16h; read-out: ATCC17978 IC90
Method in brief: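 Growth of the Acinetobacter baumannii strain was followed by optical density at 600 nm every 20 minutes for 16h at 35±2° C. Inoculum was ~5×10^(5) CFU/ml in Iso-Sensitest medium, with twofold compound dilutions (e.g. 50 to 0.097 μM final). The 90% inhibitory concentration was derived in log-phase growth.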

Question: For “tert-butyl 3-[[[4-[[3- [4- (difluoromethoxy) phenyl]imidazo[1,2- a]pyrazin-8- yl]amino]-2-methyl- benzoyl]amino] methyl] pyrrolidine-1- carboxylate [Example 47]”, which IC90 is on record?
Answer: The IC90 was 1700 nM.

Question: CCc1cc(Nc2nccn3c(-c4ccc(OC)c(F)c4F)cnc23)ccc1C(=O)NC(CCN)C(F)(F)F (centres unmarked) [Example 320, N-(4-amino-1,1,1-trifluorobutan-2-yl)-4-[[3-(2,3-difluoro-4-methoxyphenyl)imidazo[1,2-a]pyrazin-8-yl]amino]-2-ethylbenzamide; hydrochloride] was tested. Which IC90 did it give?
Answer: Its IC90 is 2700 nM.

same assay, conditions: Acinetobacter baumannii, ATCC17978, 16 h, 90% growth inhibitory concentration; Acinetobacter baumannii ATCC17978; Iso-Sensitest broth, OD 600 nm over 16h; read-out: ATCC17978 IC90

Question: N#CCOc1ccc(-c2cnc3c(Nc4ccc(C(=O)NCCc5ccncc5)c(Cl)c4)nccn23)c(F)c1F [Example 75, 2-chloro-4-((3-(4-(cyanomethoxy)-2,3-difluorophenyl)imidazo [1,2-a]pyrazin-8-yl)amino)-N-(2-(pyridin-4-yl)ethyl)benzamide] was tested. Which IC90 did it give?
Answer: The IC90 was 90 nM.

Question: How did the IC90 turn out when CCc1cc(Nc2nccn3c(-c4ccc(OC)c(F)c4F)cnc23)ccc1C(=O)NCCCO[C@@H]1O[C@H](CO)[C@H](O)[C@H](O)[C@H]1N [Example 520, N-[3-[(2R,3R,4R,5R,6R)-3-amino-4,5-dihydroxy-6-(hydroxymethyl)oxan-2-yl]oxypropyl]-4-[[3-(2,3-difluoro-4-methoxyphenyl)imidazo[1,2-a]pyrazin-8-yl]amino]-2-ethylbenzamide;formic acid] was run?
Answer: Its IC90 is 110 nM.

Question: How did the IC90 turn out when COc1ccc(-c2cnc3c(Nc4ccc(C(=O)N[C@H](C)CNC(C)=N)c(C)c4)nccn23)c(F)c1F [Example 486, 4-[[3-(2,3-difluoro-4-methoxyphenyl)imidazo[1,2-a]pyrazin-8-yl]amino]-#N!- [(2#R!)-1-(ethanimidoylamino)propan-2-yl]-2-methylbenzamide;formic acid] was run?
Answer: Its IC90 is 68 nM.

Question: For Cc1cc(Nc2nccn3c(-c4ccc(OC(F)F)cc4)cnc23)ccc1C(=O)N(C)CCCN1CCNCC1 [Example 219, 4-[[3-[4-(difluoromethoxy)phenyl]im-idazo[1,2-a]pyrazin-8-yl]amino]-N,2-dimethyl-N-(3-piperazin-1-ylpropyl)benzamide;hydrochlo-ride], which IC90 is on record?
Answer: The IC90 was 1000 nM.

Question: Which IC90 does the source give for COc1ccc(-c2cnc3c(Nc4ccc(C(=O)N[C@@H](C)CNC(=N)C(C)C)c(C)c4)nccn23)c(F)c1F [Example 499, 4-[[3-(2,3-difluoro-4-methoxyphenyl)imidazo[1,2-a]pyrazin-8-yl]amino]-2-methyl-#N!-[(2#S!)-1-(2-methylpropanimidoylamino)propan-2-yl]benzamide] here?
Answer: The IC90 was 300 nM.

Question: How did the IC90 turn out when COc1ccc(-c2cnc3c(Nc4ccc(C(=O)NCCCN5CCNC(C(=O)O)C5)c(C)c4)nccn23)cc1F (centres unmarked) [Example 2, 4-(3-(4-((3-(3-fluoro-4-methoxyphenyl)imidazo [1,2-a]pyrazin-8-yl)amino)-2-methylbenzamido)propyl) piperazine-2-carboxylic acid] was run?
Answer: Its IC90 is 4600 nM.

Question: COc1ccc(-c2cnc3c(Nc4cc(C)c(C(=O)NCCCN)c(F)c4)nccn23)c(F)c1F [Example 427, N-(3-aminopropyl)-4-((3-(2,3-difluoro-4-methoxyphenyl)imidazo[1,2-a]pyrazin-8-yl)amino)-2-fluoro-6-methylbenzamide formate] was tested. Which IC90 did it give?
Answer: Its IC90 is 690 nM.

Question: Cc1cc(Nc2nccn3c(-c4ccc(OC(F)F)cc4)cnc23)ccc1C(=O)NCCN1CCNC(=O)C1 [Example 221, 4-[[3-[4-(difluoromethoxy)phenyl]im-idazo[1,2-a]pyrazin-8-yl]amino]-2-methyl-N-[2-(3-oxopiperazin-1-yl)ethyl]benzamide] was tested. Which IC90 did it give?
Answer: The IC90 was 1100 nM.

Question: CCc1cc(Nc2nccn3c(-c4ccc(OC(F)F)c(F)c4F)cnc23)ccc1C(=O)NCCCCCN [Example 96, N-(5-aminopentyl)-4-((3-(4-(difluoromethoxy)-2,3-difluorophenyl)imidazo [1,2-a]pyrazin-8-yl)amino)-2-ethylbenzamide hydrochloride] was tested. Which IC90 did it give?
Answer: Its IC90 is 70 nM.
